Data as given in PubChem BioAssay (NCI).
Several values for one entry are separate records, joined by “and”; a condition that tells them apart may be missing. Equal values may be shown once.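 All cell lines were grown in 96-well plates and treated with compound for 48 hours. GI50 = concentration required for 50% inhibition of growth. At the TGI there is no net growth.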

Key:
Experiment in all cases: NCI anticancer screen, dose series, 48 h
BT-549 breast = system: BT-549 breast
CAKI-1 renal = system: CAKI-1 renal
HCT-15 colon = system: HCT-15 colon
HOP-18 NSCLC = system: HOP-18 NSCLC
HS 578T breast = system: HS 578T breast
NCI-H522 lung = system: NCI-H522 lung
OVCAR-5 ovarian = system: OVCAR-5 ovarian
SK-MEL-28 melanoma = system: SK-MEL-28 melanoma
SNB-78 CNS = system: SNB-78 CNS
T-47D breast = system: T-47D breast

Compound | TGI (BT-549 breast) | TGI (CAKI-1 renal) | TGI (HCT-15 colon) | TGI (HOP-18 NSCLC) | TGI (HS 578T breast) | TGI (NCI-H522 lung) | TGI (OVCAR-5 ovarian) | TGI (SK-MEL-28 melanoma) | TGI (SNB-78 CNS) | GI50 (BT-549 breast) | GI50 (HOP-18 NSCLC) | GI50 (HS 578T breast) | GI50 (SNB-78 CNS) | GI50 (T-47D breast) | TGI (T-47D breast) | GI50 (HCT-15 colon) | GI50 (NCI-H522 lung) | GI50 (OVCAR-5 ovarian) | GI50 (SK-MEL-28 melanoma)
CCNCC(=O)O[C@]1(CC)C(=O)OCc2c1cc1n(c2=O)Cc2cc3ccccc3nc2-1 | 26.7 µM | 4.65 µM | > 100 µM | 20.5 µM | > 100 µM | 7.97 µM | 13.2 µM | > 55.5 µM | > 100 µM |  |  |  |  |  |  |  |  |  | 
CC[C@H]1CN2CCc3cc(OC)c(OC)cc3[C@@H]2C[C@@H]1C[C@H]1NCCc2cc(O)c(OC)cc21 | 0.298 µM | 0.0847 µM and 0.375 µM | 0.373 µM and 0.557 µM | 0.793 µM | 0.0539 µM |  | 0.0751 µM and 0.503 µM | 0.0678 µM and 0.0487 µM and 0.266 µM |  | 42.2 nM and 48.5 nM | 28.4 nM and 130 nM | 0.0138 µM | 26.6 nM and 50.2 nM | 0.022 µM | 0.0776 µM |  |  |  | 
CCn1cc(/C=C/C(C)c2cn(CC)c(=O)[nH]c2=O)c(=O)[nH]c1=O (stereo not drawn) |  | > 100 µM | > 100 µM | > 100 µM |  | > 100 µM | > 100 µM | > 100 µM |  |  |  |  |  |  |  |  |  |  | 
CC1=CC(=O)CCC2(C)C1CC[C@@H]2OC=O (stereo partly drawn) |  | > 100 µM |  | > 100 µM |  | > 100 µM | > 100 µM | > 100 µM | > 100 µM |  |  |  |  |  |  |  |  |  | 
COc1ccc(/C(=N/NC(=O)NN)C(c2ccc(OC)cc2)C2(O)CNc3c(Cl)cc(Cl)cc32)cc1 (stereo not drawn) |  |  | > 100 µM | > 100 µM |  | > 100 µM | > 100 µM | > 100 µM | > 100 µM |  |  |  |  |  |  |  |  |  | 
C=C/C=C(\NC(=O)C(Cl)(Cl)Cl)[Si](C)(C)C |  |  | > 100 µM | > 100 µM |  | > 100 µM | > 100 µM | > 100 µM | > 100 µM |  |  |  |  |  |  |  |  |  | 
COC1(OC)CC2C=C(S(=O)(=O)c3ccccc3)C1N(Cc1ccccc1)C2=O (stereo not drawn) |  |  |  | > 100 µM |  | 33.9 µM |  | > 100 µM | 75.9 µM |  |  |  |  |  |  |  |  |  | 
CC(=O)C1CC=C(C)CC1 (stereo not drawn) |  | > 100 µM | > 100 µM | > 100 µM |  | > 100 µM | > 100 µM | > 100 µM | > 100 µM |  |  |  |  |  |  |  |  |  | 
COC1=CC(O)(CC(N)=O)c2ccccc2C1=O (stereo not drawn) |  | > 100 µM | > 100 µM | > 100 µM |  | > 100 µM | > 100 µM | > 100 µM | > 100 µM |  |  |  |  |  |  |  |  |  | 
CC1C[C@H](OC(N)=O)C(C)CC1=O (stereo partly drawn) |  | > 100 µM | > 100 µM | > 100 µM |  |  | > 100 µM |  | > 100 µM |  |  |  |  |  |  |  |  |  | 
CCC[CH2][Sn]([CH2]CCC)([O]C(=O)c1cc(F)cc(F)c1)[O]C(=O)c1cc(F)cc(F)c1 |  |  | 2.41 µM | 3.33 µM |  | 0.269 µM | 2.96 µM | 2.37 µM | 1.66 µM |  | 1910 nM |  | 404 nM |  |  | 1170 nM | 137 nM | 1600 nM | 1130 nM
CCn1c2c(n(CC)c1=S)-c1c(n(CC)c(=S)n1CC)SSSS2 | 29.1 µM | 33.1 µM | 11.8 µM | 22 µM | 91.1 µM | 3.76 µM | 27.8 µM | 18.7 µM | 28.1 µM |  |  |  |  |  | 5.16 µM |  |  |  | 
Cc1cc(N(CCC#N)S(C)(=O)=O)ccc1C=O |  | > 100 µM | > 100 µM | > 100 µM |  | > 100 µM | > 100 µM | > 100 µM | > 100 µM |  |  |  |  |  |  |  |  |  | 
NC(N)=NS(=O)(=O)c1ccc(NCc2c3ccccc3nc3ccccc23)cc1 | 34.3 µM | 69.2 µM | > 100 µM | > 86.8 µM | 28.6 µM | 26.9 µM | > 100 µM | > 97.1 µM | > 66.9 µM |  |  |  |  |  | 23.5 µM |  |  |  | 
Brc1ccc(-c2nnc(-c3nn(-c4ccccc4)c4nc5ccccc5nc34)o2)cc1 |  | > 100 µM |  | > 100 µM |  | > 100 µM | > 100 µM | > 100 µM | > 100 µM |  |  |  |  |  |  |  |  |  | 
N#CC(C(=O)/C(=N\Nc1nc(=S)[nH]n1N)C(C#N)c1ccc(Cl)cc1)c1ccc(Cl)cc1 (stereo not drawn) |  | > 100 µM | > 100 µM | > 100 µM |  |  | > 100 µM | > 100 µM | > 100 µM |  |  |  |  |  |  |  |  |  | 

Compound | TGI (BT-549 breast) | TGI (CAKI-1 renal) | TGI (HCT-15 colon) | TGI (HOP-18 NSCLC) | TGI (HS 578T breast) | TGI (NCI-H522 lung) | TGI (OVCAR-5 ovarian) | TGI (SK-MEL-28 melanoma) | TGI (SNB-78 CNS) | GI50 (BT-549 breast) | GI50 (HOP-18 NSCLC) | GI50 (HS 578T breast) | GI50 (SNB-78 CNS) | GI50 (T-47D breast) | TGI (T-47D breast) | GI50 (HCT-15 colon) | GI50 (NCI-H522 lung) | GI50 (OVCAR-5 ovarian) | GI50 (SK-MEL-28 melanoma)
O=C(CO)CC(=O)C(=O)Nc1nc([N+](=O)[O-])cs1 |  | > 100 µM | > 100 µM | > 100 µM |  | > 100 µM | > 100 µM | > 100 µM | > 100 µM |  |  |  |  |  |  |  |  |  | 
O=S(O)CCCCCSSCCCCSSCCCCCS(=O)O |  | > 100 µM | > 100 µM | > 100 µM |  | > 100 µM | > 100 µM | > 100 µM | > 100 µM |  |  |  |  |  |  |  |  |  | 
CCOC(=O)N1CCc2cc(OC)c(OC)c3c2C1CC3=O (stereo not drawn) |  | > 100 µM | > 100 µM | > 100 µM |  | > 100 µM | > 100 µM |  | > 100 µM |  |  |  |  |  |  |  |  |  | 
CCOC(=O)C(=O)Nc1ccc(C)cc1C |  | > 100 µM | > 100 µM | > 100 µM |  | > 100 µM | > 100 µM | > 100 µM | > 100 µM |  |  |  |  |  |  |  |  |  | 
COc1ccc(C2=NNC(=O)OC2c2ccccc2)cc1 (stereo not drawn) |  | > 100 µM | > 100 µM | > 100 µM |  |  | > 100 µM | > 100 µM | > 100 µM |  |  |  |  |  |  |  |  |  | 
Cn1c2c(c3ccccc31)C1CCCCC1C1C(=O)NC(=O)C21 (stereo not drawn) |  |  | > 100 µM | > 100 µM |  |  | > 100 µM | > 100 µM | > 100 µM |  |  |  |  |  |  |  |  |  | 
Cc1cc2c(=O)n(-c3ccc(F)cc3)c(C)nc2c(C(=O)O)c1C |  | > 100 µM | > 100 µM | > 100 µM |  |  | > 100 µM | > 100 µM | > 100 µM |  |  |  |  |  |  |  |  |  | 
Cc1ccc(NC(=O)c2cccc([N+](=O)[O-])c2O)c([N+](=O)[O-])c1 |  | > 100 µM | 31.8 µM | 91.1 µM |  | 29.5 µM | 39.4 µM | 32 µM | > 100 µM |  |  |  |  |  |  |  |  |  | 
Cc1ccc(NC(=O)NC(=O)c2ccc([N+](=O)[O-])cc2[N+](=O)[O-])cc1Oc1ncc(Cl)cn1 | 32.7 µM | 62.9 µM | 11.2 µM | 25.3 µM | 10.8 µM | 0.603 µM |  | 24.1 µM | 26.5 µM |  |  |  |  |  | 40.6 µM |  |  |  | 
CC(C)c1ccccc1NC(=O)C(=O)Cc1nc2ccccc2s1 |  | > 100 µM | > 100 µM | > 100 µM |  | > 100 µM |  | > 100 µM | > 100 µM |  |  |  |  |  |  |  |  |  | 
COc1ccc(/C=C2\CCCCC2=O)cc1 |  | > 100 µM | > 100 µM | > 100 µM |  |  |  | > 100 µM | > 100 µM |  |  |  |  |  |  |  |  |  | 
C[C@]12CCC[C@H](Cl)C1(O)C[C@H](C(=O)O)CC2 (stereo partly drawn) |  | > 100 µM | > 100 µM | > 100 µM |  | > 100 µM | > 100 µM | > 100 µM | > 100 µM |  |  |  |  |  |  |  |  |  | 
CN(C)c1ccc(/C=C(/NC(=O)c2ccccc2)c2nc3ccc(Cl)cc3[nH]2)cc1 | 85.8 µM | > 100 µM | > 73.1 µM | 8.45 µM | > 100 µM | > 74.1 µM | 97.5 µM | > 100 µM | > 100 µM | 25400 nM |  | 59.6 µM |  | 17.5 µM | > 77.1 µM |  |  |  | 
CN1C2(c3ccccc3)c3c(-c4ccccc4)sc(-c4ccccc4)c3C1(c1ccccc1)C1C(=O)N(c3ccccc3)C(=O)C12 (stereo not drawn) |  | > 100 µM |  | > 100 µM |  | > 100 µM | > 100 µM | > 100 µM | > 100 µM |  |  |  |  |  |  |  |  |  | 
COc1ccc(/C(Cl)=C(\C=O)c2ccc([N+](=O)[O-])cc2)cc1OC |  | 26.4 µM | 23.7 µM | 23.7 µM | > 100 µM | > 35.8 µM | > 100 µM | 30.5 µM | 56.5 µM |  |  |  |  |  | > 100 µM |  |  |  | 
Cc1ccc(-c2nc(SCC(=O)O)n[nH]2)cc1 |  | > 100 µM | > 100 µM | > 100 µM |  | > 100 µM | > 100 µM | > 100 µM | > 100 µM |  |  |  |  |  |  |  |  |  | 
